# According to US20260285849A1, “METHYLOPHIOPOGONONE A DERIVATIVE, AND PREPARATION AND USE THEREOF” (INSTITUTE OF MATERIA MEDICA, CHINESE ACADEMY OF MEDICAL …, priority 2022, published 2026):
# Where two headings read alike, the source gives them in different places.
# Legend:
# [1] = test system: mice with isoproterenol (ISO)-induced ischemic heart disease; experiment: ISO-induced ischemic heart disease mouse model: serum ANP and NT-proBNP (ELISA); format: in vivo; conditions: ISO 40 mg/kg s.c. 7 times
# Description: (§1) Male C57BL/6 mice were allowed to acclimate to the environment and then randomly divided into 9 groups, namely the blank control group, the ISO model group, the ISO+diltiazem 20 mg/kg positive control drug group, the ISO+Formula I (0.1, 0.5, 2 mg/kg) groups, and the ISO+Formula II (0.1, 0.5, 2 mg/kg) groups. Mice in the drug administration groups were intragastrically administered the corresponding doses of Formula I and Formula II compounds once a day at the same time. Mice in the positive drug diltiazem group were intragastrically administered the corresponding dose of diltiazem once a day. Mice in the blank control group and the model group were given the same amount of solvent (0.5% CMC-Na). The administration volume was 10 mL/kg, and the administration was continuous for 11 days.
# (§2) From the 4th to the 10th day of drug administration, ISO modeling was carried out. The blank control group was subcutaneously injected with normal saline, and mice in the other groups were subcutaneously injected with ISO at a dose of 40 mg/kg (modeling was performed 2 hours after drug administration), for a total of 7 times.
# Detection of Myocardial Hypertrophy/Heart Failure Biomarkers: After the drug administration ended, the animals' eyes were enucleated to collect blood. The blood was left to stand at room temperature for 2 hours, and then centrifuged at 3500 rpm for 20 minutes to separate the serum. The contents of serum ANP and NT-proBNP were determined according to the instructions of the ELISA kit.
# [2] = test system: mice with isoproterenol (ISO)-induced ischemic heart disease; experiment: ISO-induced ischemic heart disease mouse model: serum CK-MB (ELISA); format: in vivo
# Description: as §1, §2
# Myocardial enzyme CK-MB detection: After the administration ended, blood was collected from the animals by enucleation. The blood was left to stand at room temperature for 2 hours, and then centrifuged at 3500 rpm for 20 minutes to separate the serum. The content of CK-MB in the serum was determined according to the instructions of the ELISA kit.
# [3] = test system: mice with isoproterenol (ISO)-induced ischemic heart disease; experiment: ISO-induced ischemic heart disease mouse model: Ca2+ in myocardial tissue; format: in vivo
# Description: as §1, §2
# Calcium ion detection in myocardial tissue: After the experiment ended, some myocardial tissue was taken to prepare a 10% myocardial tissue homogenate with ultrapure water. The homogenate was centrifuged at 1200 rpm for 20 minutes at 4° C. to separate the supernatant of the myocardial tissue homogenate. The calcium ion content was determined according to the kit instructions; protein quantification was performed using the BCA protein assay method.
# [4] = test system: mice with isoproterenol (ISO)-induced ischemic heart disease; experiment: ISO-induced ischemic heart disease mouse model: myocardial tissue pathology (H&E); format: in vivo; conditions: for The number of animals with lesion degree + / The number of animals with lesion degree ++ / The number of animals with lesion degree +++ / The number of animals with lesion degree ++++ / The number of animals with lesion degree +++++ / The number of animals with lesion degree − / average score of myocardial tissue lesion degree: H&E; for pathological damage of myocardial tissue (H&E staining): three doses (0.1, 0.5, 2 mg/kg) by gavage
# Description: as §1, §2
# Pathological detection of myocardial tissue: After the experiment ended, the heart was washed with ice-cold physiological saline and dried with absorbent paper. It was then cut transversely into two halves. One-third of the part closer to the apex of the heart was fixed in a 4% paraformaldehyde solution. After dehydration with gradient ethanol and clearing with xylene, it was immersed in melted paraffin three times for embedding, 30 minutes each time. After embedding, continuous sections (about 4 μm thick) were made. Routine hematoxylin and eosin (H.E.) staining was performed. The pathological state of the myocardial tissue was observed under an optical microscope, photographed, and analyzed.
# • −: No abnormalities were observed. • +: No myocardial tissue damage was seen. There was local hypertrophy of cardiomyocytes in the interventricular septum and papillary muscles, local edema and degeneration of cardiomyocytes, widening of the local muscle space in the lesion area, and mild non-specific inflammation in the interstitium. • ++: No obvious myocardial tissue damage (cardiomyocyte necrosis) was observed. There was local hypertrophy of cardiomyocytes in the interventricular septum and papillary muscles, local edema and degeneration of cardiomyocytes. Myofibril dissolution (disappearance of cross-striations) could be seen in local areas. The lesions were relatively limited and distributed in small foci. Non-specific inflammation was visible in the interstitium, and local fibrous tissue hyperplasia in the interstitium was noted. • +++: There was obvious hypertrophy of cardiomyocytes in the interventricular septum and papillary muscles, local edema and degeneration of cardiomyocytes. […] The lesion was limited to the subendocardium of the local interventricular septum (or papillary muscle), with a limited and small affected area. Non-specific inflammation was visible in the interstitium of the lesion area, and local fibrous tissue hyperplasia in the interstitium was noted. • ++++: The hypertrophy of cardiomyocytes in the interventricular septum and papillary muscles is remarkable. Locally, there is edema and degeneration of cardiomyocytes; there is obvious damage (necrosis of cardiomyocytes) in the myocardial tissue of the local interventricular septum and papillary muscles. The lesions are distributed in foci (or small patches), and the affected area is relatively large. […] Locally, there is edema and degeneration of cardiomyocytes; the damage (necrosis of cardiomyocytes) of the myocardial tissue of the local interventricular septum and papillary muscles is severe. The damage (necrosis) lesions are distributed in patches and are connected to each other. Transmural myocardial tissue damage of the interventricular septum and papillary muscles can be seen locally.
# Rat H9C2 cardiomyocytes [5] = conditions: 800 μM ISO 24 h, MTT 570 nm
# Description: Rat H9C2 cardiomyocytes in the logarithmic growth phase were seeded into 96-well plates at a density of 7×10^4 cells/mL, with 100 μL per well. […] After 24 hours of culture, the drug groups were treated with 800 μM ISO and the corresponding concentrations of drugs. The ISO model group received 800 μM ISO and an equal volume of DMSO, and the blank control group received an equal volume of DMSO. The cells were then cultured for another 24 hours. After removing the supernatant, 100 μL MTT solution (0.5 mg/mL) was added to each well and incubated in the cell culture incubator for 4 hours. After removing the supernatant, 150 μL DMSO was added to each well, mixed by shaking for 10 minutes, and the absorbance was measured at 570 nm using a microplate reader to calculate cell viability. Cell viability (%)=[(As−Ab)/(Ac−Ab)]×100%. As: Experimental well (medium with cells, MTT, ISO); Ac: Control well (medium with cells, MTT, without ISO); Ab: Blank well (medium without cells, MTT, without ISO).
# Rat H9C2 cardiomyocytes [6] = conditions: 50 μM Ang II 24 h, MTT 570 nm
# Description: Rat H9C2 cardiomyocytes in the logarithmic growth phase were seeded at a density of 7×10^4 cells/mL into 96-well plates, with 100 μL per well. […] After 24 hours of culture, the drug treatment groups were respectively added with 50 μM Ang II and the corresponding concentration of the drug. The Ang II model group was added with 50 μM Ang II and an equal volume of DMSO, and the blank control group was added with an equal volume of DMSO. Then, the cells were cultured for another 24 hours. After removing the supernatant, 100 μL of MTT solution (0.5 mg/mL) was added to each well, and the plates were placed in an incubator for 4 hours. After removing the supernatant again, 150 μL of DMSO was added to each well, and the mixture was shaken and mixed evenly for 10 minutes. The absorbance was measured at 570 nm using a microplate reader to calculate the cell viability.
# Cell viability (%)=[(As−Ab)/(Ac−Ab)]×100% • As: Experimental well (culture medium containing cells, MTT, Ang II); • Ac: Control well (culture medium containing cells, MTT, without Ang II); • Ab: Blank well (culture medium without cells, MTT, without Ang II).
# H9C2 cardiomyocytes = experiment: cells; conditions: Rattus norvegicus, H9c2, read-out: Cell viability
# Description: H9C2 cardiomyocytes in the logarithmic growth phase were seeded into 96-well plates at a density of 7×10^4 cells/mL, with 100 μL per well.
# After 24 hours of culture, the culture medium of the H/R and drug-treated groups was replaced with serum-free glucose-free DMEM medium (100 μL per well). The cells were then placed in an anaerobic incubator and cultured under hypoxic conditions in a 37° C. cell culture incubator. After 6 hours, the supernatant of the H/R and drug-treated groups was removed and replaced with high-glucose medium containing 10% fetal bovine serum (100 μL per well). Each drug-treated group received the corresponding concentration of the drug, while the H/R model group and the blank control group received an equal volume of DMSO.
# After removing the supernatant, 100 μL of CCK solution (the volume of CCK accounted for 10% of the DMEM culture medium volume) was added to each well. The cells were cultured in the cell culture incubator for 1 hour, and the absorbance was measured at 450 nm using a microplate reader to calculate the cell viability. Cell viability was calculated as follows: Cell viability (%)=(Experimental well-Blank well)/(Control well-Blank well)×100%.
# [7] = 0.1 mg/kg intragastric once a day 11 days
# [8] = 0.5 mg/kg intragastric once a day 11 days
# [9] = 2 mg/kg intragastric once a day 11 days
structure (smiles),measurement,setting,value
O=c1c(Cc2ccc3c(c2)OCO3)coc2cc(O)cc(O)c12 [Formula I],ANP,[1]; [7],301.02 ± 58.98 pg/mL
same,NT-proBNP,[1]; [7],39.35 ± 2.83 pg/mL
same,ANP,[1]; [8],295.85 ± 57.72 pg/mL
same,NT-proBNP,[1]; [8],43.52 ± 6.06 pg/mL
same,ANP,[1]; [9],289.01 ± 50.17 pg/mL
same,NT-proBNP,[1]; [9],40.47 ± 7.15 pg/mL
same,CK-MB,[2]; [7],14.86 ± 2.90 ng/mL
same,CK-MB,[2]; [8],13.71 ± 2.75 ng/mL
same,CK-MB,[2]; [9],15.05 ± 2.49 ng/mL
same,Ca^2+,[3]; [7],0.050 ± 0.008 mmol/gprot
same,Ca^2+,[3]; [8],0.046 ± 0.010 mmol/gprot
same,Ca^2+,[3]; [9],0.058 ± 0.009 mmol/gprot
same,The number of animals with lesion degree +,[4]; 0.1 mg/kg,0
same,The number of animals with lesion degree ++,[4]; 0.1 mg/kg,2
same,The number of animals with lesion degree +++,[4]; 0.1 mg/kg,5
same,The number of animals with lesion degree ++++,[4]; 0.1 mg/kg,2
same,The number of animals with lesion degree +++++,[4]; 0.1 mg/kg,0
same,The number of animals with lesion degree −,[4]; 0.1 mg/kg,0
same,average score of myocardial tissue lesion degree,[4]; 0.1 mg/kg,3.00 ± 0.71
same,The number of animals with lesion degree +,[4]; 0.5 mg/kg,2
same,The number of animals with lesion degree ++,[4]; 0.5 mg/kg,4
same,The number of animals with lesion degree +++,[4]; 0.5 mg/kg,4
same,The number of animals with lesion degree ++++,[4]; 0.5 mg/kg,0
same,The number of animals with lesion degree +++++,[4]; 0.5 mg/kg,0
same,The number of animals with lesion degree −,[4]; 0.5 mg/kg,0
same,average score of myocardial tissue lesion degree,[4]; 0.5 mg/kg,2.20 ± 0.79
same,The number of animals with lesion degree +,[4]; 2 mg/kg,6
same,The number of animals with lesion degree ++,[4]; 2 mg/kg,3
same,The number of animals with lesion degree +++,[4]; 2 mg/kg,0
same,The number of animals with lesion degree ++++,[4]; 2 mg/kg,0
same,The number of animals with lesion degree +++++,[4]; 2 mg/kg,0
same,The number of animals with lesion degree −,[4]; 2 mg/kg,1
same,average score of myocardial tissue lesion degree,[4]; 2 mg/kg,1.20 ± 0.63
same,pathological damage of myocardial tissue (H&E staining),[4],significantly improve the pathological damage of myocardial tissue
same,OD,Rat H9C2 cardiomyocytes [5]; 0.1 μM,0.983 ± 0.144
same,OD,Rat H9C2 cardiomyocytes [5]; 0.3 μM,0.929 ± 0.105
same,OD,Rat H9C2 cardiomyocytes [5]; 1 μM,0.969 ± 0.065^###&&
same,OD,Rat H9C2 cardiomyocytes [5]; 3 μM,0.926 ± 0.045
same,OD,Rat H9C2 cardiomyocytes [5]; 5 μM,0.807 ± 0.088
same,OD,Rat H9C2 cardiomyocytes [5]; 10 μM,0.839 ± 0.091^###&
same,OD,Rat H9C2 cardiomyocytes [6]; 0.1 μM,0.809 ± 0.060
same,OD,Rat H9C2 cardiomyocytes [6]; 0.3 μM,0.780 ± 0.046
same,OD,Rat H9C2 cardiomyocytes [6]; 1 μM,0.791 ± 0.043
same,OD,Rat H9C2 cardiomyocytes [6]; 3 μM,0.816 ± 0.035
same,OD,Rat H9C2 cardiomyocytes [6]; 10 μM,0.823 ± 0.048
same,viability at 0.1 µM,H9C2 cardiomyocytes,60.6%
same,viability at 0.3 µM,H9C2 cardiomyocytes,60.3%
same,viability at 1 µM,H9C2 cardiomyocytes,55.4%
same,viability at 3 µM,H9C2 cardiomyocytes,59.6%
same,viability at 5 µM,H9C2 cardiomyocytes,54.4%
same,viability at 10 µM,H9C2 cardiomyocytes,55.3%
"Cc1c(O)cc(O)c2c(=O)c(Cc3ccc4c(c3)OCO4)coc12 [Formula II, 3-(benzo[d][1,3]dioxol-5-ylmethyl)-5,7-dihydroxy-8-methyl-4H-chromen-4-one]",ANP,[1]; [7],303.60 ± 37.76 pg/mL
same,NT-proBNP,[1]; [7],34.07 ± 4.10 pg/mL
same,ANP,[1]; [8],264.38 ± 27.96 pg/mL
same,NT-proBNP,[1]; [8],31.31 ± 2.24 pg/mL
same,ANP,[1]; [9],258.19 ± 52.28 pg/mL
same,NT-proBNP,[1]; [9],31.12 ± 2.33 pg/mL
same,CK-MB,[2]; [7],15.48 ± 1.76 ng/mL
same,CK-MB,[2]; [8],12.89 ± 2.29 ng/mL
same,CK-MB,[2]; [9],12.91 ± 1.53 ng/mL
same,Ca^2+,[3]; [7],0.046 ± 0.015 mmol/gprot
same,Ca^2+,[3]; [8],0.054 ± 0.014 mmol/gprot
same,Ca^2+,[3]; [9],0.059 ± 0.009 mmol/gprot
same,The number of animals with lesion degree +,[4]; 0.1 mg/kg,2
same,The number of animals with lesion degree ++,[4]; 0.1 mg/kg,4
same,The number of animals with lesion degree +++,[4]; 0.1 mg/kg,4
same,The number of animals with lesion degree ++++,[4]; 0.1 mg/kg,0
same,The number of animals with lesion degree +++++,[4]; 0.1 mg/kg,0
same,The number of animals with lesion degree −,[4]; 0.1 mg/kg,0
same,average score of myocardial tissue lesion degree,[4]; 0.1 mg/kg,2.20 ± 0.79
same,The number of animals with lesion degree +,[4]; 0.5 mg/kg,3
same,The number of animals with lesion degree ++,[4]; 0.5 mg/kg,4
same,The number of animals with lesion degree +++,[4]; 0.5 mg/kg,3
same,The number of animals with lesion degree ++++,[4]; 0.5 mg/kg,0
same,The number of animals with lesion degree +++++,[4]; 0.5 mg/kg,0
same,The number of animals with lesion degree −,[4]; 0.5 mg/kg,0
same,average score of myocardial tissue lesion degree,[4]; 0.5 mg/kg,2.00 ± 0.82
same,The number of animals with lesion degree +,[4]; 2 mg/kg,6
same,The number of animals with lesion degree ++,[4]; 2 mg/kg,1
same,The number of animals with lesion degree +++,[4]; 2 mg/kg,0
same,The number of animals with lesion degree ++++,[4]; 2 mg/kg,0
same,The number of animals with lesion degree +++++,[4]; 2 mg/kg,0
same,The number of animals with lesion degree −,[4]; 2 mg/kg,4
same,average score of myocardial tissue lesion degree,[4]; 2 mg/kg,0.73 ± 0.65
same,pathological damage of myocardial tissue (H&E staining),[4],significantly improve the pathological damage of myocardial tissue
same,OD,Rat H9C2 cardiomyocytes [5]; 0.1 μM,0.964 ± 0.132
same,OD,Rat H9C2 cardiomyocytes [5]; 0.3 μM,0.964 ± 0.031
same,OD,Rat H9C2 cardiomyocytes [5]; 1 μM,0.904 ± 0.072^###&&
same,OD,Rat H9C2 cardiomyocytes [5]; 3 μM,0.963 ± 0.064
same,OD,Rat H9C2 cardiomyocytes [5]; 5 μM,0.784 ± 0.067
same,OD,Rat H9C2 cardiomyocytes [5]; 10 μM,0.806 ± 0.067
same,OD,Rat H9C2 cardiomyocytes [6]; 0.1 μM,0.876 ± 0.044
same,OD,Rat H9C2 cardiomyocytes [6]; 0.3 μM,0.791 ± 0.062
same,OD,Rat H9C2 cardiomyocytes [6]; 1 μM,0.835 ± 0.052
same,OD,Rat H9C2 cardiomyocytes [6]; 3 μM,0.785 ± 0.048
same,OD,Rat H9C2 cardiomyocytes [6]; 10 μM,0.814 ± 0.053
same,viability at 0.1 µM,H9C2 cardiomyocytes,60.5%
same,viability at 0.3 µM,H9C2 cardiomyocytes,58.8%
same,viability at 1 µM,H9C2 cardiomyocytes,52.1%
same,viability at 3 µM,H9C2 cardiomyocytes,61.5%
same,viability at 5 µM,H9C2 cardiomyocytes,44.8%
same,viability at 10 µM,H9C2 cardiomyocytes,47.9%
